The numbers were not newly measured in patent publication US20040092577A1, “Microparticle pharmaceutical compositions for intratumoral delivery” (priority 2002, published 2004), which cites them from elsewhere.

For data set [1] the following is noted: gels, 0.6% loading; Zentner 2001.
Data set [2] deals with MDA-468 breast cancer cells. The following applies: Lankmela et al.

As to `CC(=O)O[C@H]1C(=O)[C@@]2(C)[C@H]([C@H](OC(=O)c3ccccc3)[C@]3(O)C[C@H](OC(=O)[C@H](O)[C@@H](NC(=O)c4ccccc4)c4ccccc4)C(C)=C1C3(C)C)[C@]1(OC(C)=O)CO[C@@H]1C[C@@H]2O` [Paclitaxel], the duration of delivery in data set [1] was 1 to 6 weeks.
Consider `COc1cccc2c1C(=O)c1c(O)c3c(c(O)c1C2=O)C[C@@](O)(C(=O)CO)C[C@@H]3O[C@H]1C[C@H](N)[C@H](O)[C@H](C)O1` [doxorubicin], for which the “rate of uptake α” value in data set [2] was 0.016 s⁻¹.
